Reference: publication PMC9982066, “Inhibition of Ehrlichia chaffeensis infection by cell-permeable macrocyclic peptides that bind type IV secretion effector Etf-1” (PNAS Nexus, 2023)
“Also recorded” adds a separate entry of the source. Starred links: 1 amine or outer side, 2 acyl side, 3 side chain; linkers in the order of their positions; H or OH if unused. Positions of bridges follow the written chain, without caps; N, C: chain ends. Non-standard residues stand in square brackets, D forms with d. Residues, ends and D or L forms follow the SMILES beside them. Trimesoyl = O=C(c1cc(C(=O)[*:2])cc(C(=O)[*:3])c1)[*:1]; d2Nal = N[C@H](Cc1ccc2ccccc2c1)C(=O)O; Dap = NC[C@H](N)C(=O)O

Columns and labels:
E. chaffeensis [1] = assay: E. chaffeensis infection of RF/6A cells (numbers and sizes of morulae); format: cell-based, Ehrlichia chaffeensis; conditions: 10 μM, 2 days
[2] = serum stability assay (UPLC); format: in vitro ADME; conditions: 25% (v/v) in DPBS; 25% human serum, 37°C, after 22 h; read-out: degradation
Description: In comparison, the linear peptide Tat (cell-permeable peptide of HIV) was completely degraded within the first 120 min of incubation (Fig. 4B).
Human serum was diluted to 25% (v/v) in sterile DPBS and equilibrated at 37°C for 15 min. Peptides were added to the diluted serum to a final concentration of 20 μM and incubated at 37°C with gentle mixing. At designated time points, 30 μL aliquots were withdrawn and mixed with 30 μL of 15% trichloroacetic acid in MeOH (w/v) and 30 μL of MeCN and stored at 4°C overnight to completely precipitate the serum proteins. Next, each aliquot was centrifuged (15,000g, 5 min, 4°C) and 14 μL of the supernatant was injected in an UPLC equipped with an analytical Waters Acquity UPLC BEH C18 column (1.7 μm, 2.1 mm I.D., 100 mm length) and an inline UV-Vis detector and a single quadrupole mass detector. The column was eluted with a linear gradient of 20–50% MeCN in ddH2O containing 0.1% TFA. A UV/Vis detector at 214 nm and the mass spec quantifying the ion counts corresponding to the [M + 3H]^3+ ion of the analytes were used to analyze the samples. The area under the peak of interest was obtained by integration, normalized to that of the peptide at t = 0, and plotted as a function of the incubation time to determine the serum half-life of the peptide.

E. chaffeensis [3] = assay: morphological examination of E. chaffeensis infection of THP-1 cells by Diff-Quik staining
Etf-1-GFP = assay: mitochondrial localization of ectopically expressed Etf-1-GFP in RF/6A cells; format: cell-based, Ehrlichia chaffeensis; conditions: 10 μM, 2 days
Description: For mitochondria localization analysis, RF/6A cells were seeded onto a cover glass in a 12-well plate for 3 h, then infected with E. chaffeensis at ∼30 MOI. Alternatively, cells were transfected with Etf-1-GFP or Etf-1-DsRed plasmids using Fugene HD (Promega) or by electroporation at 100 V and 1,000 µF using the Gene Pulser Xcell System (BioRad) according to the manufacturers’ instructions ([16]). […] To examine the roles of macrocyclic peptides on Etf-1 localization on E. chaffeensis inclusions, infected RF/6A cells were treated with 10 μM peptides at 3 h pi for 2 days. At 2 days pi or pt, cells were washed 3 times with PBS, then fixed in 4% PFA for 20 min. Native Etf-1 and mitochondria marker cytochrome C proteins were labeled with rabbit anti-Etf-1 IgG and mouse anti-cytochrome C, then with AF488-conjugated goat anti-rabbit and anti-mouse secondary antibodies in PGS (PBS with 0.1% gelatin and 0.1% saponin) for 1 h each at RT. Host-cell and Ehrlichial DNAs were stained with 300 nM DAPI, and fluorescence with differential interference contrast images were observed and captured with a DeltaVision deconvolution microscope (Applied Precision, Issaquah, WA, USA). Percentages of Etf-1 protein colocalization with macrocyclic peptides or E. chaffeensis inclusions were quantified by counting 10–20 cells per group from three independent experiments.

THP-1 cells = assay: CellTiter-Glo luminescent cell viability assay; conditions: 2-day treatment

## CC(C)C[C@H]1NC(=O)[C@H](CO)NC(=O)[C@H]2CCCN2C(=O)[C@H](CCC(N)=O)NC(=O)[C@H](Cc2c[nH]cn2)NC(=O)[C@H](Cc2ccc(O)cc2)NC(=O)c2cc3cc(c2)C(=O)NC[C@H](NC1=O)C(=O)N[C@@H](Cc1ccccc1)C(=O)N[C@H](Cc1ccc2ccccc2c1)C(=O)N[C@H](CCCNC(=N)N)C(=O)N[C@@H](CCCNC(=N)N)C(=O)N[C@H](CCCNC(=N)N)C(=O)N[C@@H](CCCNC(=N)N)C(=O)N[C@H](C(N)=O)CNC3=O [Peptide B7, TMA-Tyr-His-Gln-pro-Ser-leu-Dap-Phe-nal-arg-Arg-arg-Arg-Dap] (YHQ[dP]S[dL][Dap]F[d2Nal][dR]R[dR]R[Dap]-NH2; linker N-7-14 via Trimesoyl)
E. chaffeensis [1]
  inhibition of E. chaffeensis infection: significantly inhibited
[2]
  metabolised at 22 h, 20 µM: < 20%
E. chaffeensis [3]; THP-1 cells, Fig. S4 (with Figs. 5, S3)
  E. chaffeensis infection (numbers and sizes of morulae): significantly inhibited; also recorded: potent inhibition
E. chaffeensis [3]; THP-1 host cells
  cytotoxicity (cell lysis in treated groups): least cytotoxicity
Etf-1-GFP
  effect on mitochondrial localization of Etf-1-GFP: neither peptide B7 nor C17 affected mitochondrial localization
THP-1 cells; 20 μM
  cell viability: slightly reduced the cell viability
THP-1 cells; up to 10 μM
  cytotoxicity: no cytotoxicity
